Where two headings read alike, the source gives them in different places.
What was measured:
MDA-MB231 D3H = assay: CellTiter-Glo viability/proliferation assay, MDA-MB231 breast cancer cells; assay type: cell-based; details: Homo sapiens, MDA-MB-231, 48 h, read-out: Inhibition of MDA-MB231 D3H
PANC-1 = assay: CellTiter-Glo cell proliferation, PANC-1 pancreatic cancer cells; assay type: cell-based, human; details: Homo sapiens; PANC-1 (by context); read-out: IC50, inhibition of cell viability/proliferation
Text: Cell culture and treatment of pancreatic cancer cell lines: Pancreatic cancer cells lines BxPC-3, SW1990, and PANC-1 used in the experiments presented herein can be obtained from ATCC. The cells can be cultured and passaged in complete growth medium (RPMI-1640, Dulbecco's Modified Eagle Medium, or Leibovitz's L-15 medium) that has been supplemented with fetal bovine serum to a final concentration of 10%.
Effects of Compound-5B on proliferation and Id-1 expression in pancreatic cell lines. Compound-5B was next tested for inhibition of cell viability/proliferation in the three pancreatic cancer cell lines and two primary patient-derived cancer cell lines. Compound-5B inhibited cell viability/proliferation of all the cancer cell lines (Table 2). The culturing condition for the pancreatic cell lines was similar to those used in the breast cancer lines, with the exception of the primary patient-derived pancreatic cancer cell lines (PANC9 and PANC13). For determining inhibition of cell proliferation in patient-derived pancreatic cancer cells were cultured in a T75 ultra low attachment flasks with DMEM/F12 media supplemented with B27, penicillin/streptomycin (10,000 u/mL), 50 µg/mL human epidermal growth factor (hEGF), 50 μg/mL human fibroblast growth factor, and 5 μg/mL heparin. Cells were plated in a 384-well plate and incubated for three days to promote the formation of tumorspheres. Cells were then treated with Compound-5B for three days. Cell proliferation of pancreatic cells in the presence of drug was measured using the CellTiter-Glo luminescent Assay and IC50 values were calculated (Table 2). The IC50 and corresponding 95% confidence limits (CL) were calculated using non-linear regression analysis.

PANC-1 tumors = assay: PANC-1 subcutaneous xenograft in athymic nu/nu mice; assay type: in vivo; details: PANC-1 tumor mice; Compound-5B 10 mg/kg i.p. daily, gemcitabine 50 mg/kg i.p. three times a week
SKOv3 (ovarian) = assay: Cell proliferation, SKOv3 ovarian cancer cells; assay type: cell-based; details: Homo sapiens, SK-OV-3, read-out: IC50 category
Text: Effects of Compound-5B on cell proliferation in additional cancer cells: To determine whether Compound-5B would have broad based anticancer activity, we study whether Compound-5B would be effective at inhibiting cell proliferation in a variety of cancers overexpressing Id-1. The assay conditions used were identical to those presented for breast and pancreatic cancers. Indeed, Compound-5B was potent at inhibiting cell proliferation in blood cancer (leukemia), glioblastoma, prostate, and ovarian cancer.

[1] = CellTiter-Glo, two-day treatment

| Compound | IC50 (MDA-MB231 D3H; [1]) [nM] | also measured |
| --- | --- | --- |
| CCCCCc1cc(O)c(C(=O)Nc2ccccc2)c(O)c1 [Compound 11, 2,6-dihydroxy-4-pentyl-N-phenylbenzamide] | < 500 | – |
| CCCCCCC(C)(C)c1cc(O)c(C(=O)Nc2ccccc2N2CCN(C)CC2)c(O)c1 [Compound 5H, 2,6-dihydroxy-4-(2-methyloctan-2-yl)-N-(2-(4-methylpiperazin-1-yl)phenyl)benzamide] | 500 to 1000 | – |
| CC(C)(c1ccccc1)c1cc(O)c(C(=O)Nc2ccccc2)c(O)c1 [Compound 17B, 2,6-dihydroxy-N-phenyl-4-(2-phenylpropan-2-yl)benzamide] | < 500 | – |
| CCCCCCC(C)(C)c1cc(O)c(C(=O)Nc2cccc(N3CCOCC3)c2)c(O)c1 [Compound 5J, 2,6-dihydroxy-4-(2-methyloctan-2-yl)-N-(3-morpholinophenyl)benzamide] | < 500 | – |
| CCCCCCC(C)(C)c1cc(O)c(C(=O)Nc2ccc(N3CCOCC3)cc2)c(O)c1 [Compound 5I, 2,6-dihydroxy-4-(2-methyloctan-2-yl)-N-(4-morpholinophenyl)benzamide] | < 500 | – |
| C=C(C)[C@@H]1CCC(C)=C[C@H]1c1c(O)cc(CCCCC)cc1O [CBD, cannabidiol, reference compound] | – | IC50 (PANC-1): 1900 nM |
| CCCCCCC(C)(C)c1cc(O)c(C(=O)Nc2ccc(N3CCN(C)CC3)cc2)c(O)c1 [Compound 5F, 2,6-dihydroxy-4-(2-methyloctan-2-yl)-N-(4-(4-methylpiperazin-1-yl)phenyl)benzamide] | > 15000 | – |
| Nc1ccn([C@@H]2O[C@H](CO)[C@@H](O)C2(F)F)c(=O)n1 [gemcitabine, reference compound] | – | weight loss (metric of drug toxicity) (PANC-1 tumors): significant weight loss |
| CCCCCCC(C)(C)c1cc(O)c(C(=O)Nc2cccc(N3CCN(C)CC3)c2)c(O)c1 [Compound 5G, 2,6-dihydroxy-4-(2-methyloctan-2-yl)-N-(3-(4-methylpiperazin-1-yl)phenyl)benzamide] | 1000 to 5000 | – |
| CC(C)(c1cc(O)c(C(=O)Nc2ccccn2)c(O)c1)C1CCCCC1 [Compound 17D, 4-(2-cyclohexylpropan-2-yl)-2,6-dihydroxy-N-(pyridin-2-yl)benzamide] | – | IC50 (MDA-MB231 D3H): < 500 nM |
| CC(C)(c1ccccc1)c1cc(O)c(C(=O)NC2CCCCC2)c(O)c1 [Compound 17A, N-cyclohexyl-2,6-dihydroxy-4-(2-phenylpropan-2-yl)benzamide] | – | IC50 (MDA-MB231 D3H): 500 to 1000 nM |
| CCCCCCC(C)(C)c1cc(O)c(C(=O)NC2CCCCC2)c(O)c1 [Compound 5A, N-cyclohexyl-2,6-dihydroxy-4-(2-methyloctan-2-yl)benzamide] | – | IC50 (MDA-MB231 D3H): < 500 nM |
| CCCCCCC(C)(C)c1cc(O)c(C(=O)Nc2ccccn2)c(O)c1 [Compound 5C, 2,6-dihydroxy-4-(2-methyloctan-2-yl)-N-(cyridin-2-yl) benzamide] | < 500 | – |
| CCCCCCC(C)(C)c1cc(O)c(C(=O)N(C)c2ccccc2)c(O)c1 [Compound 5E, 2,6-dihydroxy-N-methyl-4-(2-methyloctan-2-yl)-N-phenylbenzamide] | – | IC50 (MDA-MB231 D3H): 1000 to 5000 nM; IC50 (SKOv3 (ovarian)): 500 to 1000 nM |
| CC(C)(c1cc(O)c(C(=O)Nc2ccccc2)c(O)c1)C1CCCCC1 [Compound 17C, 4-(2-cyclohexylpropan-2-yl)-2,6-dihydroxy-N-phenylbenzamide] | – | IC50 (MDA-MB231 D3H): < 500 nM |
| CC(C)(CCCCN1CCOCC1)c1cc(O)c(C(=O)Nc2ccccc2)c(O)c1 [Compound 26A, 2,6-dihydroxy-4-(2-methyl-6-morpholinohexan-2-yl)-N-phenylbenzamide] | 1000 to 5000 | – |
| CCCCCCC(C)(C)c1cc(O)c(C(=O)Nc2ccncn2)c(O)c1 [Compound 5D, 2,6-dihydroxy-4-(2-methyloctan-2-yl)-N-(pyrimidin-4-yl)benzamide] | < 500 | – |
| CCCCCCC(C)(C)c1cc(O)c(C(=O)Nc2ccccc2N2CCOCC2)c(O)c1 [Compound 5K, 2,6-dihydroxy-4-(2-methyloctan-2-yl)-N-(2-morpholinophenyl)benzamide] | < 500 | – |
